Results taken from ChEMBL document CHEMBL3751824, “Design, synthesis, and docking studies of phenylpicolinamide derivatives bearing 1H-pyrrolo[2,3-b]pyridine moiety as c-Met inhibitors” (Bioorg Med Chem, 2016).

Tested on: A549
Experiment: Cytotoxicity against human A549 cells after 72 hrs by MTT assay
Conditions: A549, 72 h

Row | SMILES | IC50 [µM]
1 | O=C(Nc1ccc(Oc2ccnc3[nH]ccc23)c(F)c1)c1ccc(-c2ccc(F)cc2)cn1 | 6.01
2 | CCc1ccc(-c2ccnc(C(=O)Nc3ccc(Oc4ccnc5[nH]ccc45)c(F)c3)c2)cc1 | 3.37
3 | COc1ccc(-c2ccc(C(=O)Nc3ccc(Oc4ccnc5[nH]ccc45)cc3)nc2)cc1 | > 10
4 | Cc1ccc(-c2ccnc(C(=O)Nc3ccc(Oc4ccnc5[nH]ccc45)c(F)c3)c2)c(C)c1 | 4.35
5 | O=C(Nc1ccc(Oc2ccnc3[nH]ccc23)c(F)c1)c1cc(-c2ccc(F)cc2)ccn1 | 1.09
6 | O=C(Nc1ccc(Oc2ccnc3[nH]ccc23)cc1)c1ccc(-c2ccc(Cl)cc2)cn1 | > 10
7 | Cc1cccc(-c2ccnc(C(=O)Nc3ccc(Oc4ccnc5[nH]ccc45)c(F)c3)c2)c1 | 1.75
8 | COc1ccc(-c2ccnc(C(=O)Nc3ccc(Oc4ccnc5[nH]ccc45)cc3)c2)cc1 | 6.97
9 | Cc1cccc(-c2ccnc(C(=O)Nc3ccc(Oc4ccnc5[nH]ccc45)cc3)c2)c1 | 7.01
10 | O=C(Nc1ccc(Oc2ccnc3[nH]ccc23)c(F)c1)c1ccc(-c2ccccc2)cn1 | 1.25
11 | O=C(Nc1ccc(Oc2ccnc3[nH]ccc23)cc1)c1cc(-c2ccccc2)ccn1 | 2.92
12 | COc1ccc(-c2ccc(C(=O)Nc3ccc(Oc4ccnc5[nH]ccc45)c(F)c3)nc2)cc1 | 2.24
13 | O=C(Nc1ccc(Oc2ccnc3[nH]ccc23)c(F)c1)c1cc(-c2ccccc2)ccn1 | 4.95
14 | O=C(Nc1ccc(Oc2ccnc3[nH]ccc23)cc1)c1cc(-c2ccc(Cl)cc2)ccn1 | 4.31
15 | CCc1ccc(-c2ccc(C(=O)Nc3ccc(Oc4ccnc5[nH]ccc45)cc3)nc2)cc1 | > 10
16 | O=C(Nc1ccc(Oc2ccnc3[nH]ccc23)c(F)c1)c1cc(-c2ccc(C(F)(F)F)cc2)ccn1 | 4.92
17 | O=C(Nc1ccc(Oc2ccnc3[nH]ccc23)c(F)c1)c1ccc(-c2ccc(F)cc2F)cn1 | 3.1
18 | O=C(Nc1ccc(Oc2ccnc3[nH]ccc23)cc1)c1cc(-c2ccc(C(F)(F)F)cc2)ccn1 | 3.95
19 | Cc1ccc(-c2ccnc(C(=O)Nc3ccc(Oc4ccnc5[nH]ccc45)cc3)c2)cc1 | > 10
20 | Cc1ccc(-c2ccc(C(=O)Nc3ccc(Oc4ccnc5[nH]ccc45)cc3)nc2)cc1 | > 10
21 | Cc1ccc(-c2ccc(C(=O)Nc3ccc(Oc4ccnc5[nH]ccc45)c(F)c3)nc2)cc1 | 2.3
22 | Cc1ccc(-c2ccnc(C(=O)Nc3ccc(Oc4ccnc5[nH]ccc45)c(F)c3)c2)cc1 | 3.12
23 | O=C(Nc1ccc(Oc2ccnc3[nH]ccc23)c(F)c1)c1cc(-c2ccc(F)cc2F)ccn1 | > 10
24 | O=C(Nc1ccc(Oc2ccnc3[nH]ccc23)cc1)c1ccc(-c2ccc(F)cc2F)cn1 | > 10
25 | O=C(Nc1ccc(Oc2ccnc3[nH]ccc23)c(F)c1)c1ccc(-c2ccc(Cl)cc2)cn1 | 10
26 | COc1ccc(-c2ccnc(C(=O)Nc3ccc(Oc4ccnc5[nH]ccc45)c(F)c3)c2)cc1 | 1.04

Target: Hepatocyte growth factor receptor (Homo sapiens, UniProt P08581)
Sequence (P08581 whole entry): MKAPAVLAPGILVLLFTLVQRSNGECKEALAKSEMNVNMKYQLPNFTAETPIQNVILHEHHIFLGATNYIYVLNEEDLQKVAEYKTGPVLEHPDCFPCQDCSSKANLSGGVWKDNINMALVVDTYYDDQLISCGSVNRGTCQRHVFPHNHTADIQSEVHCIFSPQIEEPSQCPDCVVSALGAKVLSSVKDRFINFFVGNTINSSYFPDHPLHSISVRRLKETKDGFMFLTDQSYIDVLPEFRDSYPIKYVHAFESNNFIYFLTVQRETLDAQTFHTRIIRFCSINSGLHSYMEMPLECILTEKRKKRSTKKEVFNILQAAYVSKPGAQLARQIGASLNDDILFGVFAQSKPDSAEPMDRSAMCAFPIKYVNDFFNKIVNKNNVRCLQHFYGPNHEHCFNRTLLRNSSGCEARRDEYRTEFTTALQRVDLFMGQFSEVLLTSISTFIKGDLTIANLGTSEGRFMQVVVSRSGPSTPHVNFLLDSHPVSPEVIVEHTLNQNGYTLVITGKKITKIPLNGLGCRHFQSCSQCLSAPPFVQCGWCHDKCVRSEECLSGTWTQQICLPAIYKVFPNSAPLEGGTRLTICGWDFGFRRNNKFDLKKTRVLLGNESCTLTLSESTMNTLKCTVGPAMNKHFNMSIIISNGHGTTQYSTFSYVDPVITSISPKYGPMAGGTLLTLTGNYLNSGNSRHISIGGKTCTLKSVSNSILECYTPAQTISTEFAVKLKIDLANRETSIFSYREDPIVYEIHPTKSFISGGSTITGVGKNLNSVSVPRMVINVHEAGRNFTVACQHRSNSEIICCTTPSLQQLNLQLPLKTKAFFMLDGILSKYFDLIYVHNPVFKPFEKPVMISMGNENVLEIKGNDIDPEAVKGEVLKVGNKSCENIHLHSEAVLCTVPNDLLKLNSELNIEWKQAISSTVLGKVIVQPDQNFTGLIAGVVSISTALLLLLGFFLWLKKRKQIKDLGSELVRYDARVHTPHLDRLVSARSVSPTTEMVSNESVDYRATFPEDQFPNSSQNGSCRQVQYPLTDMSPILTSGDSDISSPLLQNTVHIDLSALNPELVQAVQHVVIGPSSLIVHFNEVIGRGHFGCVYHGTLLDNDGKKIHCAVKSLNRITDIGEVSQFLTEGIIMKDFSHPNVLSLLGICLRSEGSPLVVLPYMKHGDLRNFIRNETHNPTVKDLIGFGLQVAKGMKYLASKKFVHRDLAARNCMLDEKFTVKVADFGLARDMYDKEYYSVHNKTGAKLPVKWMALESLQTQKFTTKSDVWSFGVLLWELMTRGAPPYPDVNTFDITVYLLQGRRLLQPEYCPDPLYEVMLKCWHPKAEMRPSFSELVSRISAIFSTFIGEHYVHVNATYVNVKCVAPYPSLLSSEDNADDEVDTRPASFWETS
Experiment: Inhibition of c-Met (unknown origin) by mobility shift assay
Conditions: not given

Row | SMILES | IC50 [µM]
27 | O=C(Nc1ccc(Oc2ccnc3[nH]ccc23)c(F)c1)c1ccc(-c2ccc(F)cc2)cn1 | > 10
28 | O=C(Nc1ccc(Oc2ccnc3[nH]ccc23)cc1)c1ccc(-c2ccc(Cl)cc2)cn1 | > 10
29 | COc1ccc(-c2ccc(C(=O)Nc3ccc(Oc4ccnc5[nH]ccc45)c(F)c3)nc2)cc1 | > 10
30 | O=C(Nc1ccc(Oc2ccnc3[nH]ccc23)c(F)c1)c1cc(-c2ccccc2)ccn1 | > 10
31 | O=C(Nc1ccc(Oc2ccnc3[nH]ccc23)c(F)c1)c1cc(-c2ccc(C(F)(F)F)cc2)ccn1 | > 10
32 | O=C(Nc1ccc(Oc2ccnc3[nH]ccc23)cc1)c1cc(-c2ccc(C(F)(F)F)cc2)ccn1 | > 10
33 | O=C(Nc1ccc(Oc2ccnc3[nH]ccc23)cc1)c1ccc(-c2ccc(F)cc2F)cn1 | > 10

Other lines, results leading:

Row | IC50 [µM] | SMILES
34 | > 10 | O=C(Nc1ccc(Oc2ccnc3[nH]ccc23)c(F)c1)c1ccc(-c2ccccc2)cn1
35 | > 10 | CCc1ccc(-c2ccc(C(=O)Nc3ccc(Oc4ccnc5[nH]ccc45)cc3)nc2)cc1
36 | > 10 | O=C(Nc1ccc(Oc2ccnc3[nH]ccc23)c(F)c1)c1cc(-c2ccc(F)cc2F)ccn1

Tested on: HepG2
Experiment: Cytotoxicity against human HepG2 cells after 72 hrs by MTT assay
Conditions: HepG2, 72 h

Row | SMILES | IC50 [µM]
37 | CCc1ccc(-c2ccnc(C(=O)Nc3ccc(Oc4ccnc5[nH]ccc45)c(F)c3)c2)cc1 | 10.4
38 | Cc1ccc(-c2ccnc(C(=O)Nc3ccc(Oc4ccnc5[nH]ccc45)c(F)c3)c2)c(C)c1 | 13.3
39 | Cc1cccc(-c2ccnc(C(=O)Nc3ccc(Oc4ccnc5[nH]ccc45)c(F)c3)c2)c1 | 11.2
40 | COc1ccc(-c2ccnc(C(=O)Nc3ccc(Oc4ccnc5[nH]ccc45)cc3)c2)cc1 | 11.7
41 | COc1ccc(-c2ccnc(C(=O)Nc3ccc(Oc4ccnc5[nH]ccc45)c(F)c3)c2)cc1 | 13.3

Tested on: HeLa
Experiment: Cytotoxicity against human HeLa cells after 72 hrs by MTT assay
Conditions: not given

Row | SMILES | IC50 [µM]
42 | CCc1ccc(-c2ccnc(C(=O)Nc3ccc(Oc4ccnc5[nH]ccc45)c(F)c3)c2)cc1 | 8.63
43 | Cc1ccc(-c2ccnc(C(=O)Nc3ccc(Oc4ccnc5[nH]ccc45)c(F)c3)c2)c(C)c1 | 11.9
44 | Cc1cccc(-c2ccnc(C(=O)Nc3ccc(Oc4ccnc5[nH]ccc45)c(F)c3)c2)c1 | 10.3
45 | COc1ccc(-c2ccnc(C(=O)Nc3ccc(Oc4ccnc5[nH]ccc45)cc3)c2)cc1 | 7.53
46 | COc1ccc(-c2ccnc(C(=O)Nc3ccc(Oc4ccnc5[nH]ccc45)c(F)c3)c2)cc1 | 5.89

Tested on: not listed separately
Experiment: cells
Conditions: Homo sapiens, PC-3, 72 h
Description: Cytotoxicity against human PC3 cells after 72 hrs by MTT assay

Row | SMILES | IC50 [µM]
47 | O=C(Nc1ccc(Oc2ccnc3[nH]ccc23)c(F)c1)c1ccc(-c2ccc(F)cc2)cn1 | 13.4
48 | CCc1ccc(-c2ccnc(C(=O)Nc3ccc(Oc4ccnc5[nH]ccc45)c(F)c3)c2)cc1 | 2.96
49 | O=C(Nc1ccc(Oc2ccnc3[nH]ccc23)cc1)c1ccc(-c2ccc(Cl)cc2)cn1 | > 10
50 | Cc1cccc(-c2ccnc(C(=O)Nc3ccc(Oc4ccnc5[nH]ccc45)cc3)c2)c1 | 5.47
51 | O=C(Nc1ccc(Oc2ccnc3[nH]ccc23)cc1)c1cc(-c2ccccc2)ccn1 | 3.27
52 | COc1ccc(-c2ccc(C(=O)Nc3ccc(Oc4ccnc5[nH]ccc45)c(F)c3)nc2)cc1 | 0.65
53 | O=C(Nc1ccc(Oc2ccnc3[nH]ccc23)c(F)c1)c1cc(-c2ccccc2)ccn1 | > 10
54 | O=C(Nc1ccc(Oc2ccnc3[nH]ccc23)cc1)c1cc(-c2ccc(Cl)cc2)ccn1 | 25.1
55 | O=C(Nc1ccc(Oc2ccnc3[nH]ccc23)c(F)c1)c1cc(-c2ccc(C(F)(F)F)cc2)ccn1 | 4.35
56 | O=C(Nc1ccc(Oc2ccnc3[nH]ccc23)c(F)c1)c1ccc(-c2ccc(F)cc2F)cn1 | 4.72
57 | O=C(Nc1ccc(Oc2ccnc3[nH]ccc23)cc1)c1cc(-c2ccc(C(F)(F)F)cc2)ccn1 | 14.2
58 | Cc1ccc(-c2ccnc(C(=O)Nc3ccc(Oc4ccnc5[nH]ccc45)cc3)c2)cc1 | > 10
59 | Cc1ccc(-c2ccc(C(=O)Nc3ccc(Oc4ccnc5[nH]ccc45)c(F)c3)nc2)cc1 | 2.64
60 | Cc1ccc(-c2ccnc(C(=O)Nc3ccc(Oc4ccnc5[nH]ccc45)c(F)c3)c2)cc1 | 3.97
61 | O=C(Nc1ccc(Oc2ccnc3[nH]ccc23)cc1)c1ccc(-c2ccc(F)cc2F)cn1 | > 10
62 | COc1ccc(-c2ccnc(C(=O)Nc3ccc(Oc4ccnc5[nH]ccc45)c(F)c3)c2)cc1 | 0.02

Further lines, results first:

Row | IC50 [µM] | SMILES
63 | > 10 | COc1ccc(-c2ccc(C(=O)Nc3ccc(Oc4ccnc5[nH]ccc45)cc3)nc2)cc1
64 | 4.01 | Cc1ccc(-c2ccnc(C(=O)Nc3ccc(Oc4ccnc5[nH]ccc45)c(F)c3)c2)c(C)c1
65 | 0.71 | O=C(Nc1ccc(Oc2ccnc3[nH]ccc23)c(F)c1)c1cc(-c2ccc(F)cc2)ccn1
66 | 0.86 | Cc1cccc(-c2ccnc(C(=O)Nc3ccc(Oc4ccnc5[nH]ccc45)c(F)c3)c2)c1
67 | 9.62 | COc1ccc(-c2ccnc(C(=O)Nc3ccc(Oc4ccnc5[nH]ccc45)cc3)c2)cc1
68 | 0.76 | O=C(Nc1ccc(Oc2ccnc3[nH]ccc23)c(F)c1)c1ccc(-c2ccccc2)cn1
69 | > 10 | CCc1ccc(-c2ccc(C(=O)Nc3ccc(Oc4ccnc5[nH]ccc45)cc3)nc2)cc1
70 | > 10 | Cc1ccc(-c2ccc(C(=O)Nc3ccc(Oc4ccnc5[nH]ccc45)cc3)nc2)cc1
71 | > 10 | O=C(Nc1ccc(Oc2ccnc3[nH]ccc23)c(F)c1)c1cc(-c2ccc(F)cc2F)ccn1
72 | 3.03 | O=C(Nc1ccc(Oc2ccnc3[nH]ccc23)c(F)c1)c1ccc(-c2ccc(Cl)cc2)cn1

Tested on: MCF7
Experiment: cells
Conditions: Homo sapiens, MCF7, 72 h
Description: Cytotoxicity against human MCF7 cells after 72 hrs by MTT assay

Row | SMILES | IC50 [µM]
73 | O=C(Nc1ccc(Oc2ccnc3[nH]ccc23)c(F)c1)c1ccc(-c2ccc(F)cc2)cn1 | > 10
74 | CCc1ccc(-c2ccnc(C(=O)Nc3ccc(Oc4ccnc5[nH]ccc45)c(F)c3)c2)cc1 | 7.47
75 | O=C(Nc1ccc(Oc2ccnc3[nH]ccc23)cc1)c1ccc(-c2ccc(Cl)cc2)cn1 | > 10
76 | Cc1cccc(-c2ccnc(C(=O)Nc3ccc(Oc4ccnc5[nH]ccc45)cc3)c2)c1 | 7.47
77 | O=C(Nc1ccc(Oc2ccnc3[nH]ccc23)cc1)c1cc(-c2ccccc2)ccn1 | 3.75
78 | COc1ccc(-c2ccc(C(=O)Nc3ccc(Oc4ccnc5[nH]ccc45)c(F)c3)nc2)cc1 | 10.1
79 | O=C(Nc1ccc(Oc2ccnc3[nH]ccc23)c(F)c1)c1cc(-c2ccccc2)ccn1 | > 10
80 | O=C(Nc1ccc(Oc2ccnc3[nH]ccc23)cc1)c1cc(-c2ccc(Cl)cc2)ccn1 | > 10
81 | O=C(Nc1ccc(Oc2ccnc3[nH]ccc23)c(F)c1)c1cc(-c2ccc(C(F)(F)F)cc2)ccn1 | 8.55
82 | O=C(Nc1ccc(Oc2ccnc3[nH]ccc23)c(F)c1)c1ccc(-c2ccc(F)cc2F)cn1 | > 10
83 | O=C(Nc1ccc(Oc2ccnc3[nH]ccc23)cc1)c1cc(-c2ccc(C(F)(F)F)cc2)ccn1 | > 10
84 | Cc1ccc(-c2ccnc(C(=O)Nc3ccc(Oc4ccnc5[nH]ccc45)cc3)c2)cc1 | > 10
85 | Cc1ccc(-c2ccc(C(=O)Nc3ccc(Oc4ccnc5[nH]ccc45)c(F)c3)nc2)cc1 | 8.02
86 | Cc1ccc(-c2ccnc(C(=O)Nc3ccc(Oc4ccnc5[nH]ccc45)c(F)c3)c2)cc1 | 8.43
87 | O=C(Nc1ccc(Oc2ccnc3[nH]ccc23)cc1)c1ccc(-c2ccc(F)cc2F)cn1 | > 10
88 | COc1ccc(-c2ccnc(C(=O)Nc3ccc(Oc4ccnc5[nH]ccc45)c(F)c3)c2)cc1 | 9.11

Other lines, results leading:

Row | IC50 [µM] | SMILES
89 | > 10 | COc1ccc(-c2ccc(C(=O)Nc3ccc(Oc4ccnc5[nH]ccc45)cc3)nc2)cc1
90 | 6.22 | Cc1ccc(-c2ccnc(C(=O)Nc3ccc(Oc4ccnc5[nH]ccc45)c(F)c3)c2)c(C)c1
91 | 9.52 | O=C(Nc1ccc(Oc2ccnc3[nH]ccc23)c(F)c1)c1cc(-c2ccc(F)cc2)ccn1
92 | 9.12 | Cc1cccc(-c2ccnc(C(=O)Nc3ccc(Oc4ccnc5[nH]ccc45)c(F)c3)c2)c1
93 | 8.21 | COc1ccc(-c2ccnc(C(=O)Nc3ccc(Oc4ccnc5[nH]ccc45)cc3)c2)cc1
94 | 4.39 | O=C(Nc1ccc(Oc2ccnc3[nH]ccc23)c(F)c1)c1ccc(-c2ccccc2)cn1
95 | > 10 | CCc1ccc(-c2ccc(C(=O)Nc3ccc(Oc4ccnc5[nH]ccc45)cc3)nc2)cc1
96 | > 10 | Cc1ccc(-c2ccc(C(=O)Nc3ccc(Oc4ccnc5[nH]ccc45)cc3)nc2)cc1
97 | > 10 | O=C(Nc1ccc(Oc2ccnc3[nH]ccc23)c(F)c1)c1cc(-c2ccc(F)cc2F)ccn1
98 | > 10 | O=C(Nc1ccc(Oc2ccnc3[nH]ccc23)c(F)c1)c1ccc(-c2ccc(Cl)cc2)cn1
